A short description of the first data set: pKa of the acidic agrochemically active ingredient.
Settings: not given
The data set is classed as physicochemical. From the text: In the case of using the above-described acidic agrochemically active ingredient having the prescribed pKa, the pKa of the ingredient can be measured by, for example, a method described in “Jikken Kagaku Koza 5, (Thermal measurement and Equilibrium)”, Maruzene, p. 469-474, Jan. 20 (1958) and the like.
For the molecule `COC(=O)c1ccccc1CS(=O)(=O)NC(=O)Nc1nc(OC)cc(OC)n1` [bensulfuron-methyl, methyl α-(4,6-dimethoxypyrimidin-2-ylcarbamoylsulfamoyl)-o-toluate], the pKa – broadly, the pH at which an ionisable group is half protonated – was 5.03.

With `CNC(=O)Oc1ccccc1OC(C)C` [PHC], the pKa is 11.5.

As to `CCc1cccc(C(O)c2nc(OC)cc(OC)n2)c1NS(=O)(=O)C(F)F` (stereo not drawn) [Compound B, 2-[(4,6-dimethoxypyrimidin-2-yl)hydroxymethyl]-6-ethyl-N-difuloromethanesulfonylanilide], the pKa came to 6.17.

`Cc1cccc2sc3nncn3c12` [tricyclazole, 5-methyl-1,2,4-triazolo[3,4-b]benzothiazole] gave a pKa of 1.6.

`CCOP(=O)(Sc1ccccc1)Sc1ccccc1` [EDDP] displayed a pKa of 10.5.

`COCc1cccc(C(O)c2nc(OC)cc(OC)n2)c1NS(=O)(=O)C(F)F` (stereo not drawn) [Compound A, 2-[(4,6-dimethoxypyrimidin-2-yl)hydroxymethyl]-6-methoxymethyl-N-difuloromethanesulfonylanilide] returned a pKa of 5.75.

The same data set, now with this note: read-out: pKa.
Take `CCOC(=O)c1cnn(C)c1S(=O)(=O)NC(=O)Nc1nc(OC)cc(OC)n1` [pyrazosulfuron-ethyl, ethyl 5-(4,6-dimethoxypyrimidin-2-ylcarbamoylsulfamoyl)-1-methylpyrazole-4-carboxylate]: the pKa came out at 3.91.

In the case of `COc1cc(OC)nc(NC(=O)NS(=O)(=O)c2c(-c3nnn(C)n3)cnn2C)n1` [azimsulfuron, 1-(4,6-dimethoxypyrimidin-2-yl)-3-[1-methyl-4-(2-methyl-2H-tetrazol-5-yl)pyrazol-5-ylsulfonyl]urea], the pKa stood at 3.6.

With `COc1cc(OC)nc(NC(=O)NS(=O)(=O)c2c(Cl)nc3ccccn23)n1` [imazosulfuron, 1-(2-chloroimidazo[1,2-a]pyridin-3-ylsulfonyl)-3-(4,6-dimethoxypyrimidin-2-yl)urea], the pKa stood at 4.

Values taken from patent US7638506B2, “Granular agrochemical composition” (Kumiai Chemical Industry Co., Ltd., priority 2002, dated 2009).
